Measured values from the supplement of paper PMC11451515.

System: P12-Ichikawa
Assay: cell viability relative to DMSO control; higher = less cytotoxic
Details: 48 h
Method in brief: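 Leukemia cells (NOMO1 or SEM, 500 cells/well; P12-Ichikawa, 1000 cells/well) were seeded in 5 μl in 1536-well plates after at least four passages of adaptation to each medium. They received library compounds in DMSO by pin dosing, 11 threefold points from 47 μM to 0.79 nM. Luminescence with CellTiter-Glo One was read after 48 h at 37°C. Viability is stated per plate relative to DMSO wells, with cell-free wells as background.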

[1] = HPLM + 10% dialyzed FBS, 0.000781 µM
[2] = HPLM + 10% dialyzed FBS, 0.00234 µM
[3] = HPLM + 10% dialyzed FBS, 0.00702 µM
[4] = HPLM + 10% dialyzed FBS, 0.0211 µM
[5] = HPLM + 10% dialyzed FBS, 0.0632 µM
[6] = HPLM + 10% dialyzed FBS, 0.19 µM
[7] = HPLM + 10% dialyzed FBS, 0.569 µM
[8] = HPLM + 10% dialyzed FBS, 1.71 µM
[9] = HPLM + 10% dialyzed FBS, 5.12 µM
[10] = HPLM + 10% dialyzed FBS, 15.4 µM
[11] = HPLM + 10% dialyzed FBS, 46.1 µM
[12] = RPMI 5 mM glucose + 10% FBS, 0.000781 µM
[13] = RPMI 5 mM glucose + 10% FBS, 0.00234 µM
[14] = RPMI 5 mM glucose + 10% FBS, 0.00702 µM
[15] = RPMI 5 mM glucose + 10% FBS, 0.0211 µM
[16] = RPMI 5 mM glucose + 10% FBS, 0.0632 µM
[17] = RPMI 5 mM glucose + 10% FBS, 0.19 µM
[18] = RPMI 5 mM glucose + 10% FBS, 0.569 µM
[19] = RPMI 5 mM glucose + 10% FBS, 1.71 µM
[20] = RPMI 5 mM glucose + 10% FBS, 5.12 µM
[21] = RPMI 5 mM glucose + 10% FBS, 15.4 µM
[22] = RPMI 5 mM glucose + 10% FBS, 46.1 µM
[23] = RPMI 5 mM glucose + 10% dialyzed FBS, 0.000781 µM
[24] = RPMI 5 mM glucose + 10% dialyzed FBS, 0.00234 µM
[25] = RPMI 5 mM glucose + 10% dialyzed FBS, 0.00702 µM
[26] = RPMI 5 mM glucose + 10% dialyzed FBS, 0.0211 µM
[27] = RPMI 5 mM glucose + 10% dialyzed FBS, 0.0632 µM
[28] = RPMI 5 mM glucose + 10% dialyzed FBS, 0.19 µM
[29] = RPMI 5 mM glucose + 10% dialyzed FBS, 0.569 µM
[30] = RPMI 5 mM glucose + 10% dialyzed FBS, 1.71 µM
[31] = RPMI 5 mM glucose + 10% dialyzed FBS, 5.12 µM
[32] = RPMI 5 mM glucose + 10% dialyzed FBS, 15.4 µM
[33] = RPMI 5 mM glucose + 10% dialyzed FBS, 46.1 µM

Compound | cell viability [1] | cell viability [2] | cell viability [3] | cell viability [4] | cell viability [5] | cell viability [6] | cell viability [7] | cell viability [8] | cell viability [9] | cell viability [10] | cell viability [11] | cell viability [12] | cell viability [13] | cell viability [14] | cell viability [15] | cell viability [16] | cell viability [17] | cell viability [18] | cell viability [19] | cell viability [20] | cell viability [21] | cell viability [22] | cell viability [23] | cell viability [24] | cell viability [25] | cell viability [26] | cell viability [27] | cell viability [28] | cell viability [29] | cell viability [30] | cell viability [31] | cell viability [32] | cell viability [33]
COC(=O)N[C@H](C(=O)N[C@@H](Cc1ccccc1)[C@@H](O)CN(Cc1ccc(-c2ccccn2)cc1)NC(=O)[C@@H](NC(=O)OC)C(C)(C)C)C(C)(C)C | 118% | 107% | 102% | 107% | 124% | 118% | 102% | 105% | 107% | 101% | 25.4% | 102% | 117% | 116% | 107% | 112% | 117% | 114% | 116% | 122% | 113% | 108% | 98.9% | 111% | 112% | 113% | 113% | 107% | 103% | 99.2% | 94.7% | 98.2% | 86.4%
COc1ccc(Cn2ccc3ccc(C(=O)NO)cc32)cc1 | 116% | 121% | 119% | 87.4% | 128% | 123% | 120% | 119% | 113% | 90.3% | 44% | 108% | 114% | 120% | 65.3% | 134% | 125% | 130% | 120% | 120% | 83.5% | 52.3% | 116% | 116% | 116% | 79.9% | 126% | 126% | 129% | 119% | 114% | 87% | 55.6%
CN1[C@@H]2CC(O)C[C@H]1[C@@H]1O[C@@H]12 (stereo partly drawn) | 122% | 121% | 124% | 105% | 119% | 115% | 119% | 120% | 114% | 119% | 6.79% | 122% | 113% | 123% | 119% | 135% | 121% | 119% | 125% | 107% | 104% | 18.3% | 118% | 119% | 127% | 112% | 125% | 120% | 120% | 113% | 106% | 120% | 4.64%
c1ccc2c(Oc3nc(Nc4ccc(N5CCOCC5)cc4)c4ncn(C5CCCCC5)c4n3)cccc2c1 | 116% | 118% | 126% | 132% | 126% | 121% | 126% | 132% | 134% | 137% | 130% |  |  |  |  |  |  |  |  |  |  |  |  |  |  |  |  |  |  |  |  |  | 
COC1=CC=C2C(=CC=NC2=C1)OC3=CC=C(NC(=O)\C4=C(C)\N(CC(C)(C)O)N(C4=O)C5=CC=CC=C5)C=C3F | 121% | 123% | 122% | 123% | 123% | 132% | 135% | 132% | 129% | 122% | 118% |  |  |  |  |  |  |  |  |  |  |  |  |  |  |  |  |  |  |  |  |  | 
O=P(O)(O)C(O)(Cc1cccnc1)P(=O)(O)[O][Na] (stereo not drawn) | 88.6% | 81.8% | 99.2% | 11.3% | 95.5% | 94.2% | 105% | 100% | 105% | 105% | 110% | 87.4% | 98.6% | 98.9% | 16.4% | 94.5% | 98.3% | 100% | 107% | 108% | 118% | 112% | 85.3% | 91.3% | 91.2% | 17.4% | 97.7% | 100% | 95.1% | 103% | 100% | 104% | 104%
CN(C(=O)c1ccc(F)cc1C(F)(F)F)C1CCN(c2nnc(-c3ccnn3C)c3ccccc23)CC1 | 74.9% | 88.9% | 77.9% | 85.9% | 89.2% | 81.8% | 82.1% | 84.5% | 79.4% | 85.4% | 47.3% | 75.1% | 83.3% | 81.5% | 76.2% | 78.5% | 81.5% | 79.4% | 71.7% | 75.3% | 82.8% | 39.6% | 73.7% | 70.6% | 72.8% | 78.5% | 79.9% | 84.8% | 75.9% | 75.1% | 74.3% | 77.7% | 38.2%
C=C1C[C@@]2(O)O[C@@]3(C[C@H]2C(C)C)[C@@H](C)CC[C@@H]13 | 110% | 119% | 112% | 129% | 117% | 123% | 122% | 112% | 117% | 125% | 118% | 113% | 127% | 114% | 126% | 129% | 134% | 119% | 123% | 122% | 128% | 132% | 112% | 109% | 116% | 117% | 122% | 135% | 113% | 125% | 121% | 127% | 128%
Cn1cc(-c2ccc3ncc(Cc4ccc5ncccc5c4)n3n2)cn1 | 96.8% | 105% | 107% | 107% | 105% | 104% | 113% | 107% | 105% | 107% | 100% | 102% | 108% | 100% | 103% | 102% | 109% | 111% | 107% | 106% | 104% | 102% | 103% | 119% | 112% | 109% | 110% | 104% | 115% | 114% | 102% | 98.7% | 110%
